Assay results from PubChem BioAssay (NCI).
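Each compound was tested at five concentrations against cells in 96-well plates for 48 hours. TGI marks complete inhibition of growth.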

Each compound was assayed on SK-MEL-28 melanoma (assay: NCI tumour cell line growth inhibition, 48 h).

**Q.** `CCOC(=O)c1c(-c2ccc(O)c(OC)c2)c(C#N)c(=S)n(C2OC(CO)C(O)C(O)C2O)c1-c1ccccc1` (stereo not given) was tested. Which TGI did it give?
**A.** > 100 µM

**Q.** With `CCCCCCCCCCCC[S+](C)C` as the compound, how does the TGI read?
**A.** 25.3 µM

**Q.** With `COC(C)(C)C1(O)CC[C@@H](C)CC1=O` (stereo not given in full) as the compound, how does the TGI read?
**A.** > 100 µM

What follows are compounds tested on HL-60(TB) leukemia (assay: NCI tumour cell line growth inhibition, 48 h).

**Q.** For `CCOC(=O)c1c(-c2ccc(O)c(OC)c2)c(C#N)c(=S)n(C2OC(CO)C(O)C(O)C2O)c1-c1ccccc1` (stereo not given), which TGI is on record?
**A.** > 100 µM

**Q.** `CCCCCCCCCCCC[S+](C)C` was tested. Which TGI did it give?
**A.** 14.1 µM

**Q.** For `COC(C)(C)C1(O)CC[C@@H](C)CC1=O` (stereo not given in full), which TGI is on record?
**A.** > 100 µM

These compounds were tested on KM12 colon (assay: NCI tumour cell line growth inhibition, 48 h).

**Q.** For `CCOC(=O)c1c(-c2ccc(O)c(OC)c2)c(C#N)c(=S)n(C2OC(CO)C(O)C(O)C2O)c1-c1ccccc1` (stereo not given), which TGI is on record?
**A.** > 100 µM

**Q.** How did the TGI turn out when `CCCCCCCCCCCC[S+](C)C` was run?
**A.** 14.3 µM

**Q.** Which TGI does the source give for `COC(C)(C)C1(O)CC[C@@H](C)CC1=O` (stereo not given in full) here?
**A.** > 100 µM

These compounds were tested on SR leukemia (assay: NCI tumour cell line growth inhibition, 48 h).

**Q.** How did the TGI turn out when `CCOC(=O)c1c(-c2ccc(O)c(OC)c2)c(C#N)c(=S)n(C2OC(CO)C(O)C(O)C2O)c1-c1ccccc1` (stereo not given) was run?
**A.** > 100 µM

**Q.** For `CCCCCCCCCCCC[S+](C)C`, which TGI is on record?
**A.** > 100 µM

**Q.** `COC(C)(C)C1(O)CC[C@@H](C)CC1=O` (stereo not given in full) was tested. Which TGI did it give?
**A.** > 100 µM

These compounds were tested on CAKI-1 renal (assay: NCI tumour cell line growth inhibition, 48 h).

**Q.** With `CCOC(=O)c1c(-c2ccc(O)c(OC)c2)c(C#N)c(=S)n(C2OC(CO)C(O)C(O)C2O)c1-c1ccccc1` (stereo not given) as the compound, how does the TGI read?
**A.** > 100 µM

**Q.** For `CCCCCCCCCCCC[S+](C)C`, which TGI is on record?
**A.** 10.3 µM

**Q.** How did the TGI turn out when `COC(C)(C)C1(O)CC[C@@H](C)CC1=O` (stereo not given in full) was run?
**A.** > 100 µM

These compounds were tested on NCI-H460 lung (assay: NCI tumour cell line growth inhibition, 48 h).

**Q.** Which TGI does the source give for `CCOC(=O)c1c(-c2ccc(O)c(OC)c2)c(C#N)c(=S)n(C2OC(CO)C(O)C(O)C2O)c1-c1ccccc1` (stereo not given) here?
**A.** > 100 µM

**Q.** `CCCCCCCCCCCC[S+](C)C` was tested. Which TGI did it give?
**A.** 33.2 µM

**Q.** Which TGI does the source give for `COC(C)(C)C1(O)CC[C@@H](C)CC1=O` (stereo not given in full) here?
**A.** > 100 µM

What follows are compounds tested on MOLT-4 leukemia (assay: NCI tumour cell line growth inhibition, 48 h).

**Q.** With `CCOC(=O)c1c(-c2ccc(O)c(OC)c2)c(C#N)c(=S)n(C2OC(CO)C(O)C(O)C2O)c1-c1ccccc1` (stereo not given) as the compound, how does the TGI read?
**A.** > 100 µM

**Q.** `CCCCCCCCCCCC[S+](C)C` was tested. Which TGI did it give?
**A.** 28.2 µM

**Q.** `COC(C)(C)C1(O)CC[C@@H](C)CC1=O` (stereo not given in full) was tested. Which TGI did it give?
**A.** > 100 µM

These compounds were tested on UACC-62 melanoma (assay: NCI tumour cell line growth inhibition, 48 h).

**Q.** `CCOC(=O)c1c(-c2ccc(O)c(OC)c2)c(C#N)c(=S)n(C2OC(CO)C(O)C(O)C2O)c1-c1ccccc1` (stereo not given) was tested. Which TGI did it give?
**A.** > 100 µM

**Q.** `CCCCCCCCCCCC[S+](C)C` was tested. Which TGI did it give?
**A.** 21.9 µM

**Q.** Which TGI does the source give for `COC(C)(C)C1(O)CC[C@@H](C)CC1=O` (stereo not given in full) here?
**A.** > 100 µM

Each compound was assayed on HCT-116 colon (assay: NCI tumour cell line growth inhibition, 48 h).

**Q.** `CCOC(=O)c1c(-c2ccc(O)c(OC)c2)c(C#N)c(=S)n(C2OC(CO)C(O)C(O)C2O)c1-c1ccccc1` (stereo not given) was tested. Which TGI did it give?
**A.** > 100 µM

**Q.** With `CCCCCCCCCCCC[S+](C)C` as the compound, how does the TGI read?
**A.** 20.8 µM

**Q.** How did the TGI turn out when `COC(C)(C)C1(O)CC[C@@H](C)CC1=O` (stereo not given in full) was run?
**A.** > 100 µM

The compounds below were run on HOP-62 NSCLC (assay: NCI tumour cell line growth inhibition, 48 h).

**Q.** Which TGI does the source give for `CCOC(=O)c1c(-c2ccc(O)c(OC)c2)c(C#N)c(=S)n(C2OC(CO)C(O)C(O)C2O)c1-c1ccccc1` (stereo not given) here?
**A.** > 100 µM

**Q.** `CCCCCCCCCCCC[S+](C)C` was tested. Which TGI did it give?
**A.** 1.52 µM

**Q.** With `COC(C)(C)C1(O)CC[C@@H](C)CC1=O` (stereo not given in full) as the compound, how does the TGI read?
**A.** > 100 µM
